Measured values taken from US20160279079A1, “COMPOSITIONS AND METHODS FOR TREATING BONE DISEASES” (INDIANA UNIVERSITY RESEARCH AND TECHNOLOGY CORPORATION, priority 2013, published 2016).
Entries after “also recorded” stand apart in the source; their conditions may differ.

Columns and labels:
p-ERK = experiment: Western immunoblotting, p-ERK in RAW264.7 cells; format: cell-based, mouse; details: 20 μM salubrinal
Description: (§1) METHOD EXAMPLE. Western Immunoblotting. Cells were lysed in a radioimmunoprecipitation assay (RIPA) buffer containing protease inhibitors (Santa Cruz Biotechnology, Santa Cruz, Calif., USA) and phosphatase inhibitors (Calbiochem, Billerica, Mass., USA). Isolated proteins were fractionated using 10-15% SDS gels and electro-transferred to Immobilon-P membranes (Millipore, Billerica, Mass., USA). The membrane was incubated for 1 h with primary antibodies followed by 45 min incubation with goat anti-rabbit or anti-mouse IgG conjugated with horseradish peroxidase (Cell Signaling, Danvers, Mass., USA). We used antibodies against ATF4, NFATcl (Santa Cruz), p-eIF2α (Thermo Scientific, Waltham, Mass., USA), eIF2α, caspase 3, cleaved caspase 3, p38 and p-p38 mitogen activated protein kinase (MAPK), extracellular signal-regulated kinase (ERK) and p-ERK, nuclear factor kappa B (NFκB) p65 and p-NFκB p65 (Cell Signaling), and β-actin (Sigma). Protein levels were assayed using a SuperSignal west femto maximum sensitivity substrate (Thermo Scientific), and signal intensities were quantified with a luminescent image analyzer (LAS-3000, Fuji Film, Tokyo, Japan).
(§2) METHOD EXAMPLE. Temporal profile of p-eIF2α and NFATcl. […] Note that the normalized level of “1” in FIG. 6C was defined as the level for the cells that were not treated with RANKL without administration of guanabenz.

cleaved caspase 3 = experiment: Western immunoblotting, cleaved caspase 3 in MC3T3 E1-14 cells; format: cell-based, mouse; details: 10 μM salubrinal, 24 h
Description: as §1
METHOD EXAMPLE. Enhanced mineralization of MC3T3 E1-14 cells by salubrinal. […]

[1] = tested on: MC3T3 E1 mouse osteoblast-like cells (clone 14); experiment: Cell mortality and proliferation of MC3T3 E1-14 cells; format: cell-based; details: 5-20 μM salubrinal
Description: METHOD EXAMPLE. Cell culture. MC3T3 E1 mouse osteoblast-like cells (clone 14—MC3T3 E1-14; and no clonal cells in supplementary figures), and RAW264.7 mouse pre-osteoclast (monocyte/macrophage) cells were cultured in αMEM containing 10% fetal bovine serum and antibiotics (50 units/ml penicillin, and 50 μg/ml streptomycin; Life Technologies, Grand Island, N.Y., USA). Cells were maintained at 37° C. and 5% CO2 in a humidified incubator. Cell mortality and live cell numbers were determined 24 h after the treatment with 20 ng/ml RANKL (PeproTech, Rocky Hills, N.C., USA) in response to 0.1-20 μM salubrinal or 1-20 μM guanabenz acetate (Tocris Bioscience, Ellisville, Mo., USA). Cells were stained with trypan blue and the numbers of live and dead cells were counted using a hemacytometer.
(§3) METHOD EXAMPLE. Enhanced mineralization of MC3T3 E1-14 cells by salubrinal. Prior to examining the effects of salubrinal on osteoclastogenesis, its effects on development of osteoblasts was tested, focusing on cell viability, phosphorylation of eIF2α (p-eIF2α), expression of ATF4 and osteocalcin, and matrix mineralization. […] The enhanced mineralization was also observed in non-clonal MC3T3 E1 cells (Supplementary FIG. S1).

p-p38 MAPK = experiment: Western immunoblotting, p-p38 MAPK in RAW264.7 cells; format: cell-based, mouse; details: 20 μM salubrinal
Description: as §1, §2

p-NFκB = experiment: Western immunoblotting, p-NFκB in RAW264.7 cells; format: cell-based, mouse; details: 20 μM salubrinal
Description: as §1, §2

MC3T3 E1-14 cells = experiment: Mineralization assay (Alizarin Red S staining); format: cell-based, mouse; details: 3-week incubation in an osteogenic medium
Description: METHOD EXAMPLE. Mineralization assay. Mineralization of extracellular matrix was assayed by Alizarin Red S staining. MC3T3-E1 cells were plated in 6-well plates. When cells were confluent, 50 μg/ml of ascorbic acid (Wako Chemicals, Richmond, Va., USA) and 5 mM β-glycerophosphate (Sigma) were added. The medium was changed every other day, and staining was conducted after 3 week. Cells were washed with PBS twice and fixed with 60% isopropanol for 1 min at room temperature, followed by rehydration with distilled water for 3 min at room temperature. They were stained with 1% Alizarin red S (Sigma) for 3 min and washed with distilled water.
as §3

SMILES: O=C(/C=C/c1ccccc1)NC(NC(=S)Nc1cccc2cccnc12)C(Cl)(Cl)Cl (stereo not shown) [salubrinal]
- phosphorylation level of ERK (p-ERK): did not significantly alter; also recorded: no detectable changes
- expression level of cleaved caspase 3 (cleaved caspase 3): did not elevate
- cell mortality [1]: did not increase cell mortality or inhibit cell proliferation
- cell proliferation [1]: did not increase cell mortality or inhibit cell proliferation
- phosphorylation level of p38 MAPK (p-p38 MAPK): did not significantly alter; also recorded: no detectable changes
- phosphorylation level of NFκB (p-NFκB): did not significantly alter; also recorded: no detectable changes
- mineralization (Alizarin red S staining area) (MC3T3 E1-14 cells): enhanced mineralization of MC3T3 E1-14 cells in a dose dependent manner
